# Laboratory results reported in patent publication US6737383B1, “Herbicidal oxadiazolidines” (priority 1999, dated 2004).
# Tests used:
# common groundsel = assay: Test D common groundsel; format: in vivo, Senecio vulgaris; conditions: Preemergence, 0 to 100 scale
# How it was run: (§1)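 Each weed species is planted in its own pot or compartment; preemergence doses go on the sandy loam surface within a day. The formulation is a surfactant-containing, non-phytotoxic solvent blend. Ratings come from visual comparison with untreated controls 14 to 21 days later, where 100 means complete control.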
# crabgrass = assay: Test A crabgrass; format: in vivo, Digitaria spp.; conditions: 0 to 10 scale where 0 is no effect and 10 is complete control
# How it was run: (§2)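 Injury scored visually after about eleven greenhouse days against untreated plants, 0 = no effect, 10 = complete control. Compounds, formulated in surfactant-containing non-phytotoxic solvent, were applied as preemergence soil drench to sandy loam plantings and as postemergence runoff spray at the 1–2 leaf stage.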
# sandbur = assay: Test D sandbur; format: in vivo, Cenchrus echinatus; conditions: Preemergence, 0 to 100 scale
# How it was run: as §1
# guineagrass = assay: Test D guineagrass; format: in vivo, Panicum maximum; conditions: Preemergence, 0 to 100 scale
# How it was run: as §1
# surinam grass = assay: Test D surinam grass; format: in vivo, Brachiaria decumbens; conditions: Preemergence, 0 to 100 scale
# How it was run: as §1
# goosegrass = assay: Test D goosegrass; format: in vivo, Eleusine indica; conditions: Preemergence, 0 to 100 scale
# How it was run: as §1
# Spanishneedles = assay: Test D Spanishneedles; format: in vivo, Bidens bipinnata; conditions: Preemergence, 0 to 100 scale
# How it was run: as §1
# Johnson grass = assay: Test D Johnson grass; format: in vivo, Sorghum halepense; conditions: Preemergence, 0 to 100 scale
# How it was run: as §1
# tall mallow = assay: Test D tall mallow; format: in vivo, Malva sylvestris; conditions: Preemergence, 0 to 100 scale
# How it was run: as §1
# common ragweed = assay: Test D common ragweed; format: in vivo, Ambrosia elatior; conditions: Preemergence, 0 to 100 scale
# How it was run: as §1
# Alexandergrass = assay: Test D Alexandergrass; format: in vivo, Brachiaria plantaginea; conditions: Preemergence, 0 to 100 scale
# How it was run: as §1
# purple nutsedge = assay: Test D purple nutsedge; format: in vivo, Cyperus rotundus; conditions: Preemergence, 0 to 100 scale
# How it was run: as §1
# itchgrass = assay: Test D itchgrass; format: in vivo, Rottboellia exaltata; conditions: Preemergence, 0 to 100 scale
# How it was run: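 Scoring used a 0–100 visual injury scale, with 0 meaning no effect and 100 complete control, assessed 14–21 days after application alongside untreated pots. Preemergence treatments went onto sandy loam surfaces of separately potted seeds within a day of sowing.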
# chickweed = assay: Test E chickweed; format: in vivo, Stellaria media; conditions: Preemergence
# Green foxtail [1] = assay: Test D green foxtail; format: in vivo
# How it was run: as §1
# barnyardgrass = assay: Test A barnyardgrass; format: in vivo, Echinochloa crus-galli; conditions: 0 to 10 scale where 0 is no effect and 10 is complete control
# How it was run: as §2
# large crabgrass = assay: Test D large crabgrass; format: in vivo, Digitaria sanguinalis; conditions: Preemergence, 0 to 100 scale
# How it was run: as §1
# bermuda-grass = assay: Test D bermudagrass; format: in vivo, Cynodon dactylon; conditions: Preemergence, 0 to 100 scale
# How it was run: as §1
# pitted morningglory = assay: Test D pitted morningglory; format: in vivo, Ipomoea lacunosa; conditions: Preemergence, 0 to 100 scale
# How it was run: as §1
# dallisgrass = assay: Test D dallisgrass; format: in vivo, Paspalum dilatatum; conditions: Preemergence, 0 to 100 scale
# How it was run: as §1
# velvetleaf = assay: Test A velvetleaf; format: in vivo, Abutilon theophrasti; conditions: 0 to 10 scale where 0 is no effect and 10 is complete control
# How it was run: as §2
# Green foxtail [2] = assay: Test D green foxtail; format: in vivo; conditions: Preemergence, 0 to 100 scale
# How it was run: as §1
# [3] = Rate 125 g/ha, 0 no injury, 100 complete control
# [4] = Rate 125 g/ha, 0 to 100 scale (0 no effect, 100 complete control)
# [5] = Rate 500 g/ha, 0 to 100 scale where 0 is no effect and 100 is complete control
# [6] = Rate 125 g/ha, Preemergence; 0 to 100 scale, 0 no injury, 100 complete control
# [7] = Rate 16 g/ha, 0 no injury, 100 complete control
# [8] = Rate 32 g/ha, 0 no injury, 100 complete control
# [9] = Rate 64 g/ha, 0 no injury, 100 complete control
# [10] = Rate 64 g/ha, Preemergence; 0 to 100 scale, 0 no injury, 100 complete control
smiles,measurement,setting,value
CC(C)N(C(=O)n1oc(=O)n(C(C)C)c1=O)c1ccc(Cl)cc1 [Compound 114],"Plant response rating, Com. groundsel",common groundsel; [3],85
same,"Plant response rating, Crabgrass","crabgrass; Postemergence, Rate 1000 g/ha",7
same,"Plant response rating, Crabgrass","crabgrass; Pre-emergence, Rate 2000 g/ha",10
same,Sandbur plant response rating,sandbur; [3],85
same,"Plant response rating, Guineagrass",guineagrass; [3],100
same,Surinam grass plant response rating,surinam grass; [3],75
same,"Plant response rating, Goosegrass",goosegrass; [3],100
same,Spanishneedles plant response rating,Spanishneedles; [3],0
same,Plant response rating Johnsongrass,Johnson grass; [3],0
same,Tall Mallow plant response rating,tall mallow; [3],10
same,"Plant response rating, C. ragweed",common ragweed; [3],0
same,"Plant response rating, Alexandergrass",Alexandergrass; [3],98
same,Purple nutsedge plant response rating,purple nutsedge; [3],20
same,"Plant response rating, Itchgrass",itchgrass; [3],20
same,"Plant response rating, Chickweed",chickweed; [4],15
same,"Plant response rating, Chickweed","chickweed; Rate 250 g/ha, 0 to 100 scale",50
same,"Plant response rating, Chickweed",chickweed; [5],100
same,Green foxtail plant response rating,Green foxtail [1]; [6],100
same,"Plant response rating, Green foxtail",Green foxtail [1]; [6],100
same,"Plant response rating, Barnyardgrass","barnyardgrass; Postemergence, Rate 1000 g/ha",8
same,"Plant response rating, Barnyardgrass","barnyardgrass; Pre-emergence, Rate 2000 g/ha",10
same,Plant response rating Large crabgrass,large crabgrass; [3],100
same,"Plant response rating, Bermudagrass",bermuda-grass; [3],100
same,"Plant response rating, P. morninglory",pitted morningglory; [3],0
same,"Plant response rating, Dallisgrass",dallisgrass; [3],100
same,"Plant response rating, Velvetleaf","velvetleaf; Postemergence, Rate 1000 g/ha",5
same,"Plant response rating, Velvetleaf","velvetleaf; Pre-emergence, Rate 2000 g/ha",6
CC(C)N(C(=O)n1oc(=O)n(C(C)C)c1=O)c1ccc(F)cc1 [Compound 131],"Plant response rating, Com. groundsel",common groundsel; [7],75
same,"Plant response rating, Com. groundsel",common groundsel; [8],75
same,"Plant response rating, Com. groundsel",common groundsel; [9],85
same,"Plant response rating, Com. groundsel",common groundsel; [3],100
same,"Plant response rating, Com. groundsel",common groundsel; Rate 250 g/ha,100
same,"Plant response rating, Com. groundsel",common groundsel; Rate 500 g/ha,100
same,"Plant response rating, Sandbur",sandbur; [7],0
same,"Plant response rating, Sandbur",sandbur; [8],60
same,Sandbur plant response rating,sandbur; [9],85
same,Sandbur plant response rating,sandbur; [3],100
same,"Plant response rating, Sandbur",sandbur; Rate 250 g/ha,100
same,"Plant response rating, Sandbur",sandbur; Rate 500 g/ha,100
same,"Plant response rating, Guineagrass",guineagrass; [7],0
same,"Plant response rating, Guineagrass",guineagrass; [8],100
same,"Plant response rating, Guineagrass",guineagrass; [9],100
same,"Plant response rating, Guineagrass",guineagrass; [3],100
same,"Plant response rating, Guineagrass",guineagrass; Rate 250 g/ha,100
same,"Plant response rating, Guineagrass",guineagrass; Rate 500 g/ha,100
same,"Plant response rating, Surinam grass",surinam grass; [7],20
same,"Plant response rating, Surinam grass",surinam grass; [8],75
same,Surinam grass plant response rating,surinam grass; [9],85
same,Surinam grass plant response rating,surinam grass; [3],100
same,"Plant response rating, Surinam grass",surinam grass; Rate 250 g/ha,100
same,"Plant response rating, Surinam grass",surinam grass; Rate 500 g/ha,100
same,"Plant response rating, Goosegrass",goosegrass; [7],75
same,"Plant response rating, Goosegrass",goosegrass; [8],98
same,"Plant response rating, Goosegrass",goosegrass; [9],100
same,"Plant response rating, Goosegrass",goosegrass; [3],100
same,"Plant response rating, Goosegrass",goosegrass; Rate 250 g/ha,100
same,"Plant response rating, Goosegrass",goosegrass; Rate 500 g/ha,100
same,"Plant response rating, Spanishneedles",Spanishneedles; [7],0
same,"Plant response rating, Spanishneedles",Spanishneedles; [8],0
same,Spanishneedles plant response rating,Spanishneedles; [9],40
same,Spanishneedles plant response rating,Spanishneedles; [3],60
same,"Plant response rating, Spanishneedles",Spanishneedles; Rate 500 g/ha,90
same,Plant response rating Johnsongrass,Johnson grass; [7],10
same,Plant response rating Johnsongrass,Johnson grass; [8],40
same,Plant response rating Johnsongrass,Johnson grass; [9],65
same,Plant response rating Johnsongrass,Johnson grass; [3],90
same,Plant response rating Johnsongrass,Johnson grass; Rate 250 g/ha,98
same,Plant response rating Johnsongrass,Johnson grass; Rate 500 g/ha,100
same,"Plant response rating, Tall Mallow",tall mallow; [7],30
same,"Plant response rating, Tall Mallow",tall mallow; [8],30
same,Tall Mallow plant response rating,tall mallow; [9],80
same,Tall Mallow plant response rating,tall mallow; [3],80
same,"Plant response rating, Tall Mallow",tall mallow; Rate 250 g/ha,90
same,"Plant response rating, Tall Mallow",tall mallow; Rate 500 g/ha,100
same,"Plant response rating, C. ragweed",common ragweed; [7],0
same,"Plant response rating, C. ragweed",common ragweed; [8],0
same,"Plant response rating, C. ragweed",common ragweed; [9],30
same,"Plant response rating, C. ragweed",common ragweed; [3],30
same,"Plant response rating, C. ragweed",common ragweed; Rate 250 g/ha,100
same,"Plant response rating, C. ragweed",common ragweed; Rate 500 g/ha,100
same,"Plant response rating, Alexandergrass",Alexandergrass; [7],20
same,"Plant response rating, Alexandergrass",Alexandergrass; [8],90
same,"Plant response rating, Alexandergrass",Alexandergrass; [9],98
same,"Plant response rating, Alexandergrass",Alexandergrass; [3],100
same,"Plant response rating, Alexandergrass",Alexandergrass; Rate 250 g/ha,100
same,"Plant response rating, Alexandergrass",Alexandergrass; Rate 500 g/ha,100
same,"Plant response rating, Purple nutsedge",purple nutsedge; [7],0
same,"Plant response rating, Purple nutsedge",purple nutsedge; [8],0
same,Purple nutsedge plant response rating,purple nutsedge; [9],40
same,Purple nutsedge plant response rating,purple nutsedge; [3],60
same,"Plant response rating, Purple nutsedge",purple nutsedge; Rate 250 g/ha,85
same,"Plant response rating, Purple nutsedge",purple nutsedge; Rate 500 g/ha,85
same,"Plant response rating, Itchgrass",itchgrass; [7],30
same,"Plant response rating, Itchgrass",itchgrass; [8],50
same,"Plant response rating, Itchgrass",itchgrass; [9],90
same,"Plant response rating, Itchgrass",itchgrass; [3],90
same,"Plant response rating, Itchgrass",itchgrass; Rate 250 g/ha,100
same,"Plant response rating, Itchgrass",itchgrass; Rate 500 g/ha,100
same,"Plant response rating, Chickweed",chickweed; [4],100
same,Chickweed plant response rating (0 to 100 scale),chickweed; Rate 250 g/ha,100
same,"Plant response rating, Chickweed",chickweed; [5],100
same,"Plant response rating, Green foxtail","Green foxtail [1]; Preemergence; Rate 16 g/ha; 0 to 100 scale, 0 no injury, 100 complete control",90
same,"Plant response rating, Green foxtail","Green foxtail [1]; Preemergence; Rate 32 g/ha; 0 to 100 scale, 0 no injury, 100 complete control",100
same,"Plant response rating, Green foxtail","Green foxtail [1]; Rate 16 g/ha; Preemergence; 0 to 100 scale, 0 no injury, 100 complete control",90
same,Green foxtail plant response rating,Green foxtail [1]; [10],100
same,"Plant response rating, Green foxtail",Green foxtail [1]; [10],100
same,Green foxtail plant response rating,Green foxtail [1]; [6],100
same,"Plant response rating, Green foxtail",Green foxtail [1]; [6],100
same,"Plant response rating, Green foxtail",Green foxtail [1]; Rate 250 g/ha; Preemergence; 0 to 100 scale,100
same,"Plant response rating, Green foxtail","Green foxtail [1]; Rate 500 g/ha, Preemergence; 0 to 100 scale",100
same,Plant response rating Large crabgrass,large crabgrass; [7],100
same,Plant response rating Large crabgrass,large crabgrass; [8],100
same,Plant response rating Large crabgrass,large crabgrass; [9],100
same,Plant response rating Large crabgrass,large crabgrass; [3],100
same,Plant response rating Large crabgrass,large crabgrass; Rate 250 g/ha,100
same,Plant response rating Large crabgrass,large crabgrass; Rate 500 g/ha,100
same,"Plant response rating, Bermudagrass",bermuda-grass; [7],100
same,"Plant response rating, Bermudagrass",bermuda-grass; [8],100
same,"Plant response rating, Bermudagrass",bermuda-grass; [9],100
same,"Plant response rating, Bermudagrass",bermuda-grass; [3],100
same,"Plant response rating, Bermudagrass",bermuda-grass; Rate 250 g/ha,100
same,"Plant response rating, Bermudagrass",bermuda-grass; Rate 500 g/ha,100
same,"Plant response rating, P. morninglory",pitted morningglory; [7],0
same,"Plant response rating, P. morninglory",pitted morningglory; [8],0
same,"Plant response rating, P. morninglory",pitted morningglory; [9],0
same,"Plant response rating, P. morninglory",pitted morningglory; [3],50
same,"Plant response rating, P. morninglory",pitted morningglory; Rate 250 g/ha,85
same,"Plant response rating, P. morninglory",pitted morningglory; Rate 500 g/ha,100
same,"Plant response rating, Dallisgrass",dallisgrass; [7],85
same,"Plant response rating, Dallisgrass",dallisgrass; [8],95
same,"Plant response rating, Dallisgrass",dallisgrass; [9],100
same,"Plant response rating, Dallisgrass",dallisgrass; [3],100
same,"Plant response rating, Dallisgrass",dallisgrass; Rate 250 g/ha,100
same,"Plant response rating, Dallisgrass",dallisgrass; Rate 500 g/ha,100
same,"Plant response rating, Green foxtail",Green foxtail [2]; Rate 250 g/ha,100
same,"Plant response rating, Green foxtail",Green foxtail [2]; Rate 500 g/ha,100
